# Reference: patent US6262051A, “Fungicidal methoximinomethyldioxazines” (Bayer Aktiengesellschaft, priority 1997, dated 2001)
# Like-named read-outs stand apart in the source and are kept apart here.
# Experiments:
# HPLC logP = format: physicochemical
# Plasmopara viticola = experiment: Example D: Plasmopara test (grapevine)/protective; format: in vivo; conditions: protective, 6 days after inoculation, vs untreated control; for pest or weed control at 100 g/ha: Plasmopara viticola, 144 h, read-out: Efficacy in %; for Efficacy in %: 100 g/ha
# Protocol: Plasmopara test (grapevine)/protective Solvent: 47 parts by weight of acetone Emulsifier: 3 parts by weight of alkylaryl polyglycol ether To produce a suitable preparation of active compound, 1 part by weight of active compound is mixed with the stated amount of solvent and emulsifier, and the concentrate is diluted with water to the desired concentration. To test for protective activity, young plants are sprayed with the preparation of active compound at the stated application rate. […]
# Sphaerotheca fuliginea = experiment: Example E: Sphaerotheca test (cucumber)/protective; format: in vivo; conditions: protective, 100 g/ha, 10 days after inoculation, vs untreated control
# Protocol: Sphaerotheca test (cucumber)/protective Solvent: 47 parts by weight of acetone Emulsifier: 3 parts by weight of alkylaryl polyglycol ether To produce a suitable preparation of active compound, 1 part by weight of active compound is mixed with the stated amount of solvent and emulsifier, and the concentrate is diluted with water to the desired concentration. To test for protective activity, young plants are sprayed with the preparation of active compound at the stated application rate. After the spray coating is dried on, the plants are inoculated with an aqueous spore suspension of Sphaerotheca fuliginea.
# Pyricularia oryzae = format: in vivo; conditions: rice, protective; 750 g/ha; 4 days after inoculation; vs untreated control
# [1] = test system: Erysiphe graminis f.sp. hordei; experiment: Example B: Erysiphe test (barley)/curative; format: in vivo; conditions: curative (sprayed 48 hours after inoculation), 250 g/ha, 7 days after inoculation, vs untreated control
# Protocol: Erysiphe test (barley)/curative Solvent: 10 parts by weight of N-methyl-pyrrolidone Emulsifier: 0.6 part by weight of alkylaryl polyglycol ether To produce a suitable preparation of active compound, 1 part by weight of active compound is mixed with the stated amount of solvent and emulsifier, and the concentrate is diluted with water to the desired concentration. To test for curative activity, young plants are dusted with spores of Erysiphe graminis f.sp. hordei. 48 hours after the inoculation, the plants are sprayed with the preparation of active compound at the stated application rate. The plants are placed in a greenhouse at a temperature of approximately 20° C. and a relative atmospheric humidity of approximately 80% to promote the development of mildew postures.
smiles,measurement,setting,value
"CON=C(C1=NOCCO1)c1ccccc1Oc1nccc(OC(CF)CF)n1 [Example 1, (5,6-dihydro-[1,4,2]dioxazin-3-yl)-{2-[4-(2-fluoro-1-fluoromethyl-ethoxy)-pyrimidin-2-yloxy]-phenyl}-methanone O-methyl oxime]",chromatographic logP,HPLC logP,2.2
same,pest or weed control at 100 g/ha,Plasmopara viticola,≤ 100%
"CON=C(C1=NOCCO1)c1ccccc1Oc1nccc(OCC(Cl)(Cl)Cl)n1 [Example 2, (5,6-dihydro-[1,4,2]dioxazin-3-yl)-{2-[4-(2,2,2-trichloroethoxy)-pyrimidine-2-yloxy]-phenyl}-methanone O-methyl oxime]",chromatographic logP,HPLC logP,3.1
same,pest or weed control at 100 g/ha,Plasmopara viticola,≤ 100%
same,Efficacy in %,Sphaerotheca fuliginea,more than 90%
CON=C(C1=NOCCO1)c1ccccc1Oc1nccc(OC(C)C(F)(F)F)n1 (stereo not drawn) [Example 4],chromatographic logP,HPLC logP; Table 1,2.9
CCOc1ccnc(Oc2ccccc2C(=NOC)C2=NOCCO2)n1 [Example 5],chromatographic logP,HPLC logP; Table 1,2.2
same,Efficacy in %,Pyricularia oryzae,at least 70%
CCCOc1ccnc(Oc2ccccc2C(=NOC)C2=NOCCO2)n1 [Example 6],chromatographic logP,HPLC logP; Table 1,2.5
same,Efficacy in %,[1],100%
same,Efficacy in %,Sphaerotheca fuliginea,more than 90%
same,Efficacy in %,Pyricularia oryzae,at least 70%
CON=C(C1=NOCCO1)c1ccccc1Oc1nccc(OC(C)C)n1 [Example 7],chromatographic logP,HPLC logP; Table 1,2.5
same,pest or weed control at 100 g/ha,Plasmopara viticola,≤ 100%
CON=C(C1=NOCCO1)c1ccccc1Oc1nccc(OCC(F)(F)C(F)(F)F)n1 [Example 8],chromatographic logP,HPLC logP; Table 1,3.1
same,pest or weed control at 100 g/ha,Plasmopara viticola,≤ 100%
same,Efficacy in %,Sphaerotheca fuliginea,more than 90%
CCCCOc1ccnc(Oc2ccccc2C(=NOC)C2=NOCCO2)n1 [Example 9],chromatographic logP,HPLC logP; Table 1,3
same,pest or weed control at 100 g/ha,Plasmopara viticola,≤ 100%
CON=C(C1=NOCCO1)c1ccccc1Oc1nccc(OCC(Cl)Cl)n1 [Example 10],chromatographic logP,HPLC logP; Table 1,2.7
same,pest or weed control at 100 g/ha,Plasmopara viticola,≤ 100%
CON=C(C1=NOCCO1)c1ccccc1Oc1nccc(OCC(Br)(Br)Br)n1 [Example 11],chromatographic logP,HPLC logP; Table 1,3.2
same,pest or weed control at 100 g/ha,Plasmopara viticola,≤ 100%
CON=C(C1=NOCCO1)c1ccccc1Oc1nccc(OCc2ccccc2)n1 [Example 12],chromatographic logP,HPLC logP; Table 1,2.9
same,pest or weed control at 100 g/ha,Plasmopara viticola,≤ 100%
CCCCCOc1ccnc(Oc2ccccc2C(=NOC)C2=NOCCO2)n1 [Example 14],chromatographic logP,HPLC logP; Table 1,3.3
same,pest or weed control at 100 g/ha,Plasmopara viticola,≤ 100%
CON=C(C1=NOCCO1)c1ccccc1Oc1nccc(OCc2ccccc2F)n1 [Example 15],chromatographic logP,HPLC logP; Table 1,2.9
CON=C(C1=NOCCO1)c1ccccc1Oc1nccc(OCc2ccc(C)cc2)n1 [Example 16],chromatographic logP,HPLC logP; Table 1,3.2
CON=C(C1=NOCCO1)c1ccccc1Oc1nccc(OCCc2ccccc2F)n1 [Example 17],chromatographic logP,HPLC logP; Table 1,3.2
CCCCCCCOc1ccnc(Oc2ccccc2C(=NOC)C2=NOCCO2)n1 [Example 18],chromatographic logP,HPLC logP; Table 1,4.2
CON=C(C1=NOCCO1)c1ccccc1Oc1nccc(OCc2cccc(F)c2)n1 [Example 19],chromatographic logP,HPLC logP; Table 1,3
CON=C(C1=NOCCO1)c1ccccc1Oc1nccc(OCCc2ccccc2C(F)(F)F)n1 [Example 20],chromatographic logP,HPLC logP; Table 1,3.6
CON=C(C1=NOCCO1)c1ccccc1Oc1nccc(OC(C)c2ccccc2)n1 (stereo not drawn) [Example 21],chromatographic logP,HPLC logP; Table 1,3.1
CON=C(C1=NOCCO1)c1ccccc1Oc1nccc(OCc2ccc(Cl)cc2)n1 [Example 22],chromatographic logP,HPLC logP; Table 1,3.3
CCCCCCCCOc1ccnc(Oc2ccccc2C(=NOC)C2=NOCCO2)n1 [Example 23],chromatographic logP,HPLC logP; Table 1,4.7
CON=C(C1=NOCCO1)c1ccccc1Oc1nccc(OC(C)c2ccccc2Cl)n1 (stereo not drawn) [Example 24],chromatographic logP,HPLC logP; Table 1,3.4
CON=C(C1=NOCCO1)c1ccccc1Oc1nccc(OCCc2ccccc2)n1 [Example 25],chromatographic logP,HPLC logP; Table 1,3.3
CON=C(C1=NOCCO1)c1ccccc1Oc1nccc(OCCc2ccc(Cl)cc2)n1 [Example 26],chromatographic logP,HPLC logP; Table 1,3.5
CON=C(C1=NOCCO1)c1ccccc1Oc1nccc(OC2CCCCC2)n1 [Example 27],chromatographic logP,HPLC logP; Table 1,3.3
CCC(C)Oc1ccnc(Oc2ccccc2C(=NOC)C2=NOCCO2)n1 (stereo not drawn) [Example 29],chromatographic logP,HPLC logP; Table 1,2.9
CCCCCCCCCOc1ccnc(Oc2ccccc2C(=NOC)C2=NOCCO2)n1 [Example 35],chromatographic logP,HPLC logP; Table 1,5.1
CCCCCCCCCCOc1ccnc(Oc2ccccc2C(=NOC)C2=NOCCO2)n1 [Example 36],chromatographic logP,HPLC logP; Table 1,5.6
CON=C(C1=NOCCO1)c1ccccc1Oc1nccc(OCCF)n1 [Example 38],chromatographic logP,HPLC logP; Table 1,2
CON=C(C1=NOCCO1)c1ccccc1Oc1nccc(OC(C(F)(F)F)C(F)(F)F)n1 [Example 42],chromatographic logP,HPLC logP; Table 1,3.3
C=CCOc1ccnc(Oc2ccccc2C(=NOC)C2=NOCCO2)n1 [Example 48],chromatographic logP,HPLC logP; Table 1,2.4
CON=C(C1=NOCCO1)c1ccccc1Oc1nccc(OC2CCCC2)n1 [Example 54],chromatographic logP,HPLC logP; Table 1,3
CON=C(C1=NOCCO1)c1ccccc1Oc1nccc(OCC2CCCC2)n1 [Example 58],chromatographic logP,HPLC logP; Table 1,3.4
CON=C(C1=NOCCO1)c1ccccc1Oc1nccc(OCC2CC2)n1 [Example 59],chromatographic logP,HPLC logP; Table 1,2.5
CON=C(C1=NOCCO1)c1ccccc1Oc1nccc(OCc2ccc(C)c(Cl)c2)n1 [Example 86],chromatographic logP,HPLC logP; Table 1,3.7
CON=C(C1=NOCCO1)c1ccccc1Oc1nccc(OCCc2ccc(OC)cc2)n1 [Example 98],chromatographic logP,HPLC logP; Table 1,3
CON=C(C1=NOCCO1)c1ccccc1Oc1nccc(OCCCc2ccccc2)n1 [Example 101],chromatographic logP,HPLC logP; Table 1,3.4
CON=C(C1=NOCCO1)c1ccccc1Oc1nccc(SC)n1 [Example 108],chromatographic logP,HPLC logP; Table 1,2.2
CON=C(C1=NOCCO1)c1ccccc1Oc1nccc(SCc2ccccc2)n1 [Example 120],chromatographic logP,HPLC logP; Table 1,3.14
CON=C(C1=NOCCO1)c1ccccc1Oc1nccc(NCc2ccccc2)n1 [Example 136],chromatographic logP,HPLC logP; Table 1,1.6
CON=C(C1=NOCCO1)c1ccccc1Oc1nccc(NCCc2ccccc2)n1 [Example 139],chromatographic logP,HPLC logP; Table 1,2.4
CON=C(C1=NOCCO1)c1ccccc1Oc1nccc(N(C)Cc2ccccc2)n1 [Example 152],chromatographic logP,HPLC logP; Table 1,1.84
CON=C(C1=NOCCO1)c1ccccc1Oc1nccc(OCc2ccc(OC)cc2)n1 [Example 156],chromatographic logP,HPLC logP; Table 1,2.8
CON=C(C1=NOCCO1)c1ccccc1Oc1nccc(OCC(F)(F)C(F)F)n1 [Example 157],chromatographic logP,HPLC logP; Table 1,2.6
CON=C(C1=NOCCO1)c1ccccc1Oc1nccc(OCCC(F)(F)F)n1 [Example 158],chromatographic logP,HPLC logP; Table 1,2.6
CON=C(C1=NOCCO1)c1ccccc1Oc1nccc(OCCCCCc2ccccc2)n1 [Example 159],chromatographic logP,HPLC logP; Table 1,4.1
C#CCOc1ccnc(Oc2ccccc2C(=NOC)C2=NOCCO2)n1 [Example 160],chromatographic logP,HPLC logP; Table 1,2.1
CON=C(C1=NOCCO1)c1ccccc1Oc1nccc(OCC=Cc2ccccc2)n1 [Example 161],chromatographic logP,HPLC logP; Table 1,3.3
CON=C(C1=NOCCO1)c1ccccc1Oc1nccc(OCC2C(C=C(C)C)C2(C)C)n1 (stereo not drawn) [Example 162],chromatographic logP,HPLC logP; Table 1,4.3
CCCCCCCCCCCCCCCCOc1ccnc(Oc2ccccc2C(=NOC)C2=NOCCO2)n1 [Example 163],chromatographic logP,HPLC logP; Table 1,> 7.4
C=CC(C)Oc1ccnc(Oc2ccccc2C(=NOC)C2=NOCCO2)n1 (stereo not drawn) [Example 164],chromatographic logP,HPLC logP; Table 1,2.7
C/C=C/C=C/COc1ccnc(Oc2ccccc2C(=NOC)C2=NOCCO2)n1 [Example 165],chromatographic logP,HPLC logP; Table 1,3.2
C/C=C\COc1ccnc(Oc2ccccc2C(=NOC)C2=NOCCO2)n1 [Example 166],chromatographic logP,HPLC logP; Table 1,2.7
CON=C(C1=NOCCO1)c1ccccc1Oc1nccc(OCc2ccc(SC)cc2)n1 [Example 168],chromatographic logP,HPLC logP; Table 1,2.1
C=C(Br)COc1ccnc(Oc2ccccc2C(=NOC)C2=NOCCO2)n1 [Example 169],chromatographic logP,HPLC logP; Table 1,2.7
CON=C(C1=NOCCO1)c1ccccc1Oc1nccc(NC(C)c2ccccc2)n1 (stereo not drawn) [Example 171],chromatographic logP,HPLC logP; Table 1,1.8
CON=C(C1=NOCCO1)c1ccccc1Oc1nccc(OCC2(C)CC2(Cl)Cl)n1 (stereo not drawn) [Example 172],chromatographic logP,HPLC logP; Table 1,3.3
"CON=C(C1=NOCCO1)c1ccccc1Oc1nccc(Cl)n1 [II-1, [2-(4-chloro-pyrimidin-2-yloxy)-phenyl]-(5,6-dihydro-[1,4,2]dioxazin-3-yl)-methanone O-methyl oxime]",chromatographic logP,HPLC logP,2
CON=C(C1=NOCCO1)c1ccccc1Oc1nccc(OCC(Br)(Br)Br)n1 [drawing 37],Efficacy in %,Plasmopara viticola,100%
CON=C(C1=NOCCO1)c1ccccc1Oc1nccc(OCc2ccccc2)n1 [drawing 38],Efficacy in %,Plasmopara viticola,100%
CCCCCCOc1ccnc(Oc2ccccc2C(=NOC)C2=NOCCO2)n1 [drawing 39],Efficacy in %,Plasmopara viticola,100%
CCCCCOc1ccnc(Oc2ccccc2C(=NOC)C2=NOCCO2)n1 [drawing 40],Efficacy in %,Plasmopara viticola,99%
CON=C(C1=NOCCO1)c1ccccc1Oc1nccc(OCC(F)(F)C(F)(F)F)n1 [drawing 43],Efficacy in %,Sphaerotheca fuliginea,92%
